Assay results taken from ChEMBL document CHEMBL3734723, “Synthesis and anticancer activity of 6-heteroarylcoumarins” (2015).

Columns and labels:
Assay type in all cases: functional
[1] = Growth inhibition of human breast cancer cells after 48 hrs by sulforhodamine B assay; settings: Cancer cell lines; for CC50: read-out: LC50 (the source's name)
[2] = Cytotoxicity against human Hs578T cells assessed as cell growth at 10 uM incubated for 48 hrs by sulforhodamine B assay; settings: Hs-578T, read-out: Activity
MCF7 [3] = assay: Growth inhibition of human MCF7 cells incubated for 48 hrs by sulforhodamine B assay; settings: MCF7, 48 h; for CC50: read-out: LC50 (the source's name)
[4] = Growth inhibition of human BT549 cells incubated for 48 hrs by sulforhodamine B assay; settings: BT-549, 48 h; for CC50: read-out: LC50 (the source's name)
HT-29 = assay: Growth inhibition of human HT-29 cells incubated for 48 hrs by sulforhodamine B assay; settings: HT-29, 48 h; for CC50: read-out: LC50 (the source's name)
[5] = Growth inhibition of human SF268 cells incubated for 48 hrs by sulforhodamine B assay; settings: SF-268, 48 h; for CC50: read-out: LC50 (the source's name)
NCI-H226 = assay: Growth inhibition of human NCI-H226 cells incubated for 48 hrs by sulforhodamine B assay; settings: NCI-H226, 48 h; for CC50: read-out: LC50 (the source's name)
MDA-MB-435 = assay: Cytotoxicity against human MDA-MB-435 cells assessed as cell growth at 10 uM incubated for 48 hrs by sulforhodamine B assay; settings: MDA-MB-435, 48 h, read-out: Activity
SK-MEL-2 = assay: Growth inhibition of human SK-MEL-2 cells incubated for 48 hrs by sulforhodamine B assay; settings: SK-MEL-2, 48 h; for CC50: read-out: LC50 (the source's name)
SK-MEL-5 = assay: Growth inhibition of human SK-MEL-5 cells incubated for 48 hrs by sulforhodamine B assay; settings: SK-MEL-5, 48 h; for CC50: read-out: LC50 (the source's name)
NCI-H23 [6] = assay: Cytotoxicity against human NCI-H23 cells assessed as cell growth at 10 uM incubated for 48 hrs by sulforhodamine B assay; settings: NCI-H23, 48 h, read-out: Activity
A498 = assay: Cytotoxicity against human A498 cells assessed as cell growth at 10 uM incubated for 48 hrs by sulforhodamine B assay; settings: A498, 48 h, read-out: Activity
[7] = Growth inhibition of human ovarian cancer cells after 48 hrs by sulforhodamine B assay; settings: Cancer cell lines; for CC50: read-out: LC50 (the source's name)
U-251 = assay: Cytotoxicity against human U251 cells assessed as cell growth at 10 uM incubated for 48 hrs by sulforhodamine B assay; settings: U-251, 48 h, read-out: Activity
[8] = Cytotoxicity against human UO31 cells assessed as cell growth at 10 uM incubated for 48 hrs by sulforhodamine B assay; settings: UO-31, 48 h, read-out: Activity
MDA-MB-468 = assay: Growth inhibition of human MDA-MB-468 cells incubated for 48 hrs by sulforhodamine B assay; settings: MDA-MB-468, 48 h; for CC50: read-out: LC50 (the source's name)
[9] = Growth inhibition of human UO31 cells incubated for 48 hrs by sulforhodamine B assay; settings: UO-31, 48 h; for CC50: read-out: LC50 (the source's name)
NCI-H23 [10] = assay: Growth inhibition of human NCI-H23 cells incubated for 48 hrs by sulforhodamine B assay; settings: NCI-H23, 48 h; for CC50: read-out: LC50 (the source's name)
[11] = Cytotoxicity against human OVCAR4 cells assessed as cell growth at 10 uM incubated for 48 hrs by sulforhodamine B assay; settings: OVCAR-4, 48 h, read-out: Activity
SK-MEL-28 = assay: Growth inhibition of human SK-MEL-28 cells incubated for 48 hrs by sulforhodamine B assay; settings: SK-MEL-28, 48 h; for CC50: read-out: LC50 (the source's name)
[12] = Growth inhibition of human OVCAR3 cells incubated for 48 hrs by sulforhodamine B assay; settings: OVCAR-3, 48 h; for CC50: read-out: LC50 (the source's name)
[13] = Growth inhibition of human SNB19 cells incubated for 48 hrs by sulforhodamine B assay; settings: SNB-19, 48 h; for CC50: read-out: LC50 (the source's name)
MDA-MB-231 = assay: Cytotoxicity against human MDA-MB-231 cells assessed as cell growth at 10 uM incubated for 48 hrs by sulforhodamine B assay; settings: MDA-MB-231, 48 h, read-out: Activity
M14 = assay: Growth inhibition of human M14 cells incubated for 48 hrs by sulforhodamine B assay; settings: M14, 48 h; for CC50: read-out: LC50 (the source's name)
NCI-H322M = assay: Growth inhibition of human NCI-H322M cells incubated for 48 hrs by sulforhodamine B assay; settings: for CC50: read-out: LC50 (the source's name)
[14] = Cytotoxicity against human IGROV1 cells assessed as cell growth at 10 uM incubated for 48 hrs by sulforhodamine B assay; settings: IGROV-1, 48 h, read-out: Activity
[15] = Growth inhibition of human SW620 cells incubated for 48 hrs by sulforhodamine B assay; settings: SW-620, 48 h; for CC50: read-out: LC50 (the source's name)
[16] = Cytotoxicity against human PC3 cells assessed as cell growth at 10 uM incubated for 48 hrs by sulforhodamine B assay; settings: PC-3, 48 h, read-out: Activity
MCF7 [17] = assay: Cytotoxicity against human MCF7 cells assessed as cell growth at 10 uM incubated for 48 hrs by sulforhodamine B assay; settings: MCF7, 48 h, read-out: Activity
Malme-3M = assay: Growth inhibition of human MALME-3M cells incubated for 48 hrs by sulforhodamine B assay; settings: for CC50: read-out: LC50 (the source's name)
CCRF-CEM = assay: Growth inhibition of human CCRF-CEM cells incubated for 48 hrs by sulforhodamine B assay; settings: for CC50: read-out: LC50 (the source's name)
[18] = Growth inhibition of human non-small cell lung cancer cells after 48 hrs by sulforhodamine B assay; settings: Cancer cell lines; for CC50: read-out: LC50 (the source's name)
[19] = Cytotoxicity against human SNB19 cells assessed as cell growth at 10 uM incubated for 48 hrs by sulforhodamine B assay; settings: SNB-19, 48 h, read-out: Activity
[20] = Cytotoxicity against human SNB75 cells assessed as cell growth at 10 uM incubated for 48 hrs by sulforhodamine B assay; settings: SNB-75, 48 h, read-out: Activity
T47D = assay: Growth inhibition of human T47D cells incubated for 48 hrs by sulforhodamine B assay; settings: for CC50: read-out: LC50 (the source's name)

## Cc1cc(=O)oc2c(C)c(O)c(-c3ccnc(N)n3)cc12
[1]
  GI50: 32 µM
  TGI: > 100 µM
  CC50: > 100 µM
[2]
  growth at 10 µM: 51%
MCF7 [3]
  GI50: 2610 nM
  TGI: > 100 µM
  CC50: > 100 µM
[4]
  GI50: 47.8 µM
  TGI: > 100 µM
  CC50: > 100 µM
HT-29
  GI50: 6.72 µM
  TGI: > 100 µM
  CC50: > 100 µM
[5]
  GI50: 12.3 µM
  TGI: > 100 µM
  CC50: > 100 µM
NCI-H226
  GI50: 9.84 µM
  TGI: > 100 µM
  CC50: > 100 µM
MDA-MB-435
  growth at 10 µM: 55%
SK-MEL-2
  GI50: 88.1 µM
  TGI: > 100 µM
  CC50: > 100 µM
SK-MEL-5
  GI50: 3560 nM
  TGI: > 100 µM
  CC50: > 100 µM
NCI-H23 [6]
  growth at 10 µM: 68.3%
A498
  growth at 10 µM: 42.9%
[7]
  GI50: 42.5 µM
  TGI: > 100 µM
  CC50: > 100 µM
U-251
  growth at 10 µM: 56.3%
[8]
  growth at 10 µM: 23%
MDA-MB-468
  GI50: 4.53 µM
  TGI: > 100 µM
  CC50: > 100 µM
[9]
  GI50: 2590 nM
  TGI: > 100 µM
  CC50: > 100 µM
NCI-H23 [10]
  GI50: 46 µM
  TGI: > 100 µM
  CC50: > 100 µM
[11]
  growth at 10 µM: 68.6%
SK-MEL-28
  GI50: > 100 µM
  TGI: > 100 µM
  CC50: > 100 µM
[12]
  GI50: 37.7 µM
  TGI: > 100 µM
  CC50: > 100 µM
[13]
  GI50: 35.8 µM
  TGI: > 100 µM
  CC50: > 100 µM
MDA-MB-231
  growth at 10 µM: 69%
M14
  GI50: > 100 µM
  TGI: > 100 µM
  CC50: > 100 µM
NCI-H322M
  GI50: 59 µM
  TGI: > 100 µM
  CC50: > 100 µM
[14]
  growth at 10 µM: 60.9%
[15]
  GI50: 3.6 µM
  TGI: > 100 µM
  CC50: > 100 µM
[16]
  growth at 10 µM: 60.3%
MCF7 [17]
  growth at 10 µM: 22.1%
Malme-3M
  GI50: > 100000 nM
  TGI: > 100 µM
  CC50: > 100 µM
CCRF-CEM
  GI50: 8.7 µM
  TGI: > 100 µM
  CC50: > 100 µM
[18]
  GI50: 24.4 µM
  TGI: > 100 µM
  CC50: > 100 µM
[19]
  growth at 10 µM: 64.1%
[20]
  growth at 10 µM: 33.8%
T47D
  GI50: 5 µM
  TGI: > 100 µM
  CC50: > 100 µM

## Cc1cc(=O)oc2c(C)c(O)c(-c3cc4ccc(F)cc4[nH]3)cc12
[1]
  GI50: 2.67 µM
  TGI: 14.2 µM
  CC50: 89.3 µM
[2]
  growth at 10 µM: 42.1%
MCF7 [3]
  GI50: 2570 nM
  TGI: 16.2 µM
  CC50: > 100 µM
[4]
  GI50: 3.57 µM
  TGI: 13.6 µM
  CC50: 65.9 µM
HT-29
  GI50: 10.2 µM
  TGI: 23 µM
  CC50: 52 µM
[5]
  GI50: 3.42 µM
  TGI: 15 µM
  CC50: 83.3 µM
NCI-H226
  GI50: 3.34 µM
  TGI: 22.1 µM
  CC50: > 100 µM
MDA-MB-435
  growth at 10 µM: 32.4%
SK-MEL-2
  GI50: 3.12 µM
  TGI: 7.34 µM
  CC50: 41.5 µM
SK-MEL-5
  GI50: 1650 nM
  TGI: 4.46 µM
  CC50: 14.5 µM
NCI-H23 [6]
  growth at 10 µM: 10.2%
A498
  growth at 10 µM: 52.5%
[7]
  GI50: 3.08 µM
  TGI: 17.2 µM
  CC50: 73.6 µM
U-251
  growth at 10 µM: 27.9%
[8]
  growth at 10 µM: 21.6%
MDA-MB-468
  GI50: 2.31 µM
  TGI: 8.66 µM
  CC50: 80.4 µM
[9]
  GI50: 1710 nM
  TGI: 6.21 µM
  CC50: 25.5 µM
NCI-H23 [10]
  GI50: 2.07 µM
  TGI: 8.99 µM
  CC50: 75.3 µM
[11]
  growth at 10 µM: 33.7%
SK-MEL-28
  GI50: 4.58 µM
  TGI: 18.3 µM
  CC50: 64.2 µM
[12]
  GI50: 2.28 µM
  TGI: 7.02 µM
  CC50: 37.5 µM
[13]
  CC50: > 100 µM
MDA-MB-231
  growth at 10 µM: 59.3%
M14
  GI50: 3.29 µM
  TGI: 12.7 µM
  CC50: 36.7 µM
NCI-H322M
  GI50: 3.23 µM
  TGI: 13.1 µM
  CC50: 88.3 µM
[14]
  growth at 10 µM: 33.2%
[15]
  GI50: 3.54 µM
  TGI: 15.2 µM
  CC50: 52.2 µM
[16]
  growth at 10 µM: 27.5%
MCF7 [17]
  growth at 10 µM: 28.3%
Malme-3M
  GI50: 1950 nM
  TGI: 7.32 µM
  CC50: 50.2 µM
CCRF-CEM
  GI50: 4.42 µM
  TGI: 47.7 µM
  CC50: > 100 µM
[18]
  GI50: 2.75 µM
  TGI: 12.4 µM
  CC50: 64.1 µM
[19]
  growth at 10 µM: 31.6%
[20]
  growth at 10 µM: 68.8%
T47D
  GI50: 2.39 µM
  TGI: 22.1 µM
  CC50: > 100 µM
